Laboratory results from ChEMBL document CHEMBL2401638, “Design and synthesis of biquinolone-isoniazid hybrids as a new class of antitubercular and antimicrobial agents” (Eur J Med Chem, 2013).
≈ marks a conversion by molar mass, not a printed value.

Assays:
[1] = Cytotoxicity in Artemia cysts assessed as mortality of nauplii at 30 ug/mL after 24 hrs relative to control; type: organism-based; details: in vivo
[2] = tested on: Clostridium tetani; assay: Antibacterial activity against Clostridium tetani MTCC 449 assessed as growth inhibition by broth microdilution method; type: functional
[3] = Cytotoxicity in Artemia cysts assessed as mortality of nauplii after 24 hrs; type: organism-based; details: in vivo
[4] = Cytotoxicity in Artemia cysts assessed as mortality of nauplii at 5 ug/mL after 24 hrs relative to control; type: organism-based; details: in vivo
[5] = tested on: Salmonella typhi; assay: Antibacterial activity against Salmonella typhi MTCC 98 assessed as growth inhibition by broth microdilution method; type: functional, Salmonella enterica subsp. enterica serovar Typhi; details: Salmonella enterica
[6] = Cytotoxicity in Artemia cysts assessed as mortality of nauplii at 50 ug/mL after 24 hrs relative to control; type: organism-based; details: in vivo
[7] = tested on: Candida albicans; assay: Antifungal activity against Candida albicans MTCC 227 assessed as growth inhibition by broth microdilution method; type: functional
[8] = tested on: Mycobacterium tuberculosis; assay: Antituberculosis activity against Mycobacterium tuberculosis H37Rv assessed as growth inhibition at 250 ug/ml after 12 to 28 days by Lowenstein-Jensen method relative to control; type: functional; details: read-out: GI
[9] = tested on: Staphylococcus aureus; assay: Antibacterial activity against Staphylococcus aureus MTCC 96 assessed as growth inhibition by broth microdilution method; type: functional
[10] = tested on: Trichophyton rubrum; assay: Antifungal activity against Trichophyton rubrum MTCC 296 assessed as growth inhibition by broth microdilution method; type: functional
[11] = Cytotoxicity in Artemia cysts assessed as mortality of nauplii at 20 ug/mL after 24 hrs relative to control; type: organism-based; details: in vivo
[12] = tested on: Pseudomonas aeruginosa; assay: Antibacterial activity against Pseudomonas aeruginosa MTCC 1688 assessed as growth inhibition by broth microdilution method; type: functional
[13] = tested on: Mycobacterium tuberculosis; assay: Antituberculosis activity against Mycobacterium tuberculosis H37Rv assessed as growth inhibition after 12 to 28 days by Lowenstein-Jensen method; type: functional
[14] = Cytotoxicity in Artemia cysts assessed as mortality of nauplii at 10 ug/mL after 24 hrs relative to control; type: organism-based; details: in vivo
[15] = tested on: Bacillus subtilis; assay: Antibacterial activity against Bacillus subtilis MTCC 441 assessed as growth inhibition by broth microdilution method; type: functional
[16] = tested on: Escherichia coli; assay: Antibacterial activity against Escherichia coli MTCC 443 assessed as growth inhibition by broth microdilution method; type: functional
[17] = Cytotoxicity in Artemia cysts assessed as mortality of nauplii at 40 ug/mL after 24 hrs relative to control; type: organism-based; details: in vivo

| SMILES | mortality at 24 h, 30 ug/mL [1] [%] | MIC [2] [µg/mL] | LC50 at 24 h [3] [µg/mL] | mortality at 24 h, 5 ug/mL [4] [%] | MIC [5] [µg/mL] | mortality at 24 h, 50 ug/mL [6] [%] | MIC [7] [µg/mL] | inhibition of growth at 250 µg/mL [8] [%] | MIC [9] [µg/mL] | MIC [10] [µg/mL] | mortality at 24 h, 20 ug/mL [11] [%] | MIC [12] [µg/mL] | MIC [13] [µg/mL] | mortality at 24 h, 10 ug/mL [14] [%] | MIC [15] [µg/mL] | MIC [16] [µg/mL] | mortality at 24 h, 40 ug/mL [17] [%] |
| --- | --- | --- | --- | --- | --- | --- | --- | --- | --- | --- | --- | --- | --- | --- | --- | --- | --- |
| C=CCn1c(=O)c(C2C(C(=O)OC(C)C)=C(N)N(NC(=O)c3ccncc3)C3=C2C(=O)CC(C)(C)C3)cc2cc(Cl)ccc21 (configuration not stated) | 50 | 125 | 24.5 (≈ 39.7 µM) | 0 | 125 | 90 | 1000 | 94 | 125 | 500 | 30 | 500 | 62.5 (≈ 101 µM) | 10 | 500 | 200 | 70 |
| NNC(=O)c1ccncc1 [ISONIAZID] | – | – | – | – | – | – | – | 99 | – | – | – | – | 0.2 (≈ 1.46 µM) | – | – | – | – |
| C=CCn1c(=O)c(C2C(C(=O)OC)=C(N)N(NC(=O)c3ccncc3)C3=C2C(=O)CC(C)(C)C3)cc2cc(C)ccc21 (configuration not stated) | 40 | 500 | 34.6 (≈ 60.9 µM) | 0 | 100 | 70 | 500 | 99 | 500 | > 1000 | 20 | 250 | 25 (≈ 44 µM) | 10 | 200 | 125 | 60 |
| C=CCn1c(=O)c(C2C(C(=O)OCC)=C(N)N(NC(=O)c3ccncc3)C3=C2C(=O)CC(C)(C)C3)cc2cc(C)ccc21 (configuration not stated) | 40 | 125 | 28.6 (≈ 49.1 µM) | 0 | 125 | 80 | 500 | 94 | 125 | 1000 | 30 | 500 | 62.5 (≈ 107 µM) | 20 | 500 | 62.5 | 60 |
| C=CCn1c(=O)c(C2C(C(=O)OCC)=C(N)N(NC(=O)c3ccncc3)C3=C2C(=O)CC(C)(C)C3)cc2cc(OC)ccc21 (configuration not stated) | 50 | 250 | 26.6 (≈ 44.5 µM) | 10 | 125 | 80 | 500 | 96 | 200 | 1000 | 30 | 125 | 100 (≈ 167 µM) | 20 | 125 | 250 | 60 |
| C=CCn1c(=O)c(C2C(C(=O)OC)=C(N)N(NC(=O)c3ccncc3)C3=C2C(=O)CCC3)cc2cc(OC)ccc21 (configuration not stated) | 60 | 125 | 19.7 (≈ 35.4 µM) | 10 | 125 | 90 | 1000 | 98 | 200 | > 1000 | 40 | 125 | 50 (≈ 90 µM) | 20 | 50 | 100 | 80 |
| C=CCn1c(=O)c(C2C(C(=O)OC)=C(N)N(NC(=O)c3ccncc3)C3=C2C(=O)CCC3)cc2ccccc21 (configuration not stated) | – | 125 | – | – | 250 | – | 500 | 74 | 125 | 500 | – | 50 | – | – | 100 | 500 | – |
| C=CCn1c(=O)c(C2C(C(=O)OC)=C(N)N(NC(=O)c3ccncc3)C3=C2C(=O)CC(C)(C)C3)cc2cc(OC)ccc21 (configuration not stated) | – | 200 | – | – | 200 | – | 1000 | 45 | 250 | 500 | – | 250 | – | – | 250 | 200 | – |
| C=CCn1c(=O)c(C2C(C(=O)OCC)=C(N)N(NC(=O)c3ccncc3)C3=C2C(=O)CCC3)cc2cc(C)ccc21 (configuration not stated) | – | 62.5 | – | – | 500 | – | 500 | 23 | 100 | 100 | – | 250 | – | – | 250 | 500 | – |
| C=CCn1c(=O)c(C2C(C(=O)OC)=C(N)N(NC(=O)c3ccncc3)C3=C2C(=O)CC(C)(C)C3)cc2ccccc21 (configuration not stated) | – | 200 | – | – | 200 | – | 250 | 74 | 200 | > 1000 | – | 125 | – | – | 125 | 200 | – |
| C=CCn1c(=O)c(C2C(C(=O)OC(C)C)=C(N)N(NC(=O)c3ccncc3)C3=C2C(=O)CC(C)(C)C3)cc2cc(C)ccc21 (configuration not stated) | 40 | 500 | 35.4 (≈ 59.4 µM) | 0 | 200 | 70 | 500 | 99 | 500 | 1000 | 30 | 200 | 12.5 (≈ 21 µM) | 10 | 500 | 125 | 50 |
| CO[C@H]1/C=C/O[C@@]2(C)Oc3c(C)c(O)c4c(O)c(c(/C=N/N5CCN(C)CC5)c(O)c4c3C2=O)NC(=O)/C(C)=C\C=C\[C@H](C)[C@H](O)[C@@H](C)[C@@H](O)[C@@H](C)[C@H](OC(C)=O)[C@@H]1C [RIFAMPIN] | – | – | – | – | – | – | – | 98 | – | – | – | – | 40 (≈ 48.6 µM) | – | – | – | – |
| COc1cc([C@@H]2c3cc4c(cc3[C@@H](O[C@@H]3O[C@@H]5CO[C@@H](C)O[C@H]5[C@H](O)[C@H]3O)[C@H]3COC(=O)[C@H]23)OCO4)cc(OC)c1O [ETOPOSIDE] | – | – | 7.46 (≈ 12.7 µM) | – | – | – | – | – | – | – | – | – | – | – | – | – | – |
| C=CCn1c(=O)c(C2C(C(=O)OCC)=C(N)N(NC(=O)c3ccncc3)C3=C2C(=O)CC(C)(C)C3)cc2ccccc21 (configuration not stated) | – | 500 | – | – | 100 | – | 250 | 84 | 250 | 500 | – | 500 | – | – | 500 | 50 | – |
